Data as given in patent US9493464B2, “Wee1 degradation inhibitors” (The Scripps Research Institute, priority 2012, dated 2016).
Entries after “also recorded” stand apart in the source; their conditions may differ. Like-named read-outs stand apart in the source and are kept apart here.

How the values were obtained:
A498 (renal) = assay: NCI Dose Growth Inhibition assay (NCI-60); assay type: cell-based; settings: Homo sapiens
Procedure: (§1) Table 3, below, illustrates the activity of some of the compounds of the present invention in the National Cancer Institute's Dose Growth Inhibition assay against several human tumor cell lines selected from the NCI-60 panel.
(§2) NCI-60 Cancer Cell Line Screening was performed by the National Cancer Institute, using the procedures described on their website (http://dtp.nci.nih.gov/branches/btb/ivelsp.html)

COLO 205 (colon) = assay: NCI Dose Growth Inhibition assay (NCI-60); assay type: cell-based; settings: Homo sapiens
Procedure: as §1, §2

SNB-75 (CNS) = assay: NCI Dose Growth Inhibition assay (NCI-60); assay type: cell-based; settings: Homo sapiens
Procedure: as §1, §2

MDA-MB-468 (breast) = assay: NCI Dose Growth Inhibition assay (NCI-60); assay type: cell-based; settings: Homo sapiens
Procedure: as §1, §2

RXF393 (renal) = assay: NCI Dose Growth Inhibition assay (NCI-60); assay type: cell-based; settings: Homo sapiens, RXF 393
Procedure: as §1, §2

UACC-62 (melanoma) = assay: NCI Dose Growth Inhibition assay (NCI-60); assay type: cell-based; settings: Homo sapiens
Procedure: as §1, §2

HeLa cells = assay: Cell viability, ATP content (Cell-Titer Glo); assay type: cell-based; settings: 24 hours, result in words
Text: Error bars represent the standard deviation of three separate experiments.

[1] = tested on: cerebellar granule cell progenitors (GCPs); assay: In vitro proliferation of cerebellar granule cell progenitors (3H-thymidine uptake); assay type: cell-based, mouse; settings: 24 hours; result in words
Procedure: GCPs were incubated with DMSO, 5 μM D4476 (known CK1δ and CK1ε inhibitor), or 50 μM D4476 and processed for ^3H-thymidine incorporation after 24 hours. A representative experiment performed in triplicate is shown.

LKB1 = target: T1, LKB1 (Homo sapiens, UniProt Q15831); assay: In vitro kinase assay, LKB1; assay type: biochemical
T1 construct: Reaction Biology Corporation (inferred: panel performed there)
T1 sequence (Q15831 1-433): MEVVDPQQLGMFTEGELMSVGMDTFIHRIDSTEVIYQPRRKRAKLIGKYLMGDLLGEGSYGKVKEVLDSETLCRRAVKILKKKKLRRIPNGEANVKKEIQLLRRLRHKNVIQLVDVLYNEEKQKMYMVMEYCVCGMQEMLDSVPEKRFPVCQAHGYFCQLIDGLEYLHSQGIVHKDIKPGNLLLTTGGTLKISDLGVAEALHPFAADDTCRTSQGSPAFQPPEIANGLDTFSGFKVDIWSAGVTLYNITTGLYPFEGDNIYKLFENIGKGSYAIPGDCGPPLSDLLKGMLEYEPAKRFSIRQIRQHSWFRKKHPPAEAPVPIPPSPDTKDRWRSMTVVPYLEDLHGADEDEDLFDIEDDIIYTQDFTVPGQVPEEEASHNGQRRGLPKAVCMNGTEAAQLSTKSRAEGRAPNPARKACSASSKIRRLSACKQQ
T1 sequence (Q7RTN6 1-431 partner): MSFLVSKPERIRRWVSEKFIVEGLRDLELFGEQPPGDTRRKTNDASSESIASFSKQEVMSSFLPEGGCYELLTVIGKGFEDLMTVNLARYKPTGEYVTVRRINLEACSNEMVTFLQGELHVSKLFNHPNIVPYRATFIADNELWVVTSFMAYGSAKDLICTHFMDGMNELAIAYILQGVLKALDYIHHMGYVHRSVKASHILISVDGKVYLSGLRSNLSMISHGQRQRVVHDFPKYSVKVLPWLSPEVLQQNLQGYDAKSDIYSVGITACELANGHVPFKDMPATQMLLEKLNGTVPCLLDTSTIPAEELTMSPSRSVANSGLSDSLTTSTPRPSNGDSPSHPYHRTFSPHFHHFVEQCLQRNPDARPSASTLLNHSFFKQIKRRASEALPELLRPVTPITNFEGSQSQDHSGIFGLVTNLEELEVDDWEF
T1 sequence (Q9Y376 1-341 partner): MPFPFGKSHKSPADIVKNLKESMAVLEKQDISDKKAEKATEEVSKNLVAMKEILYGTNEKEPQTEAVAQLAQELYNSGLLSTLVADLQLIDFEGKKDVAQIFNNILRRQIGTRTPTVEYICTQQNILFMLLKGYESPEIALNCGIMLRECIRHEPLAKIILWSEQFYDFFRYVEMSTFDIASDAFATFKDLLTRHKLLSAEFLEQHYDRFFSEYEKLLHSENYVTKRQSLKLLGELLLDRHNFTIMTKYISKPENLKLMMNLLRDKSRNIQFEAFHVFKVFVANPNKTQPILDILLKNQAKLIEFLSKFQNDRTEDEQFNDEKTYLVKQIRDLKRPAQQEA
Procedure: Compounds were tested in 10-dose IC50 mode with 3-fold serial dilution starting at 50 μM. […] Reactions were carried out at 10 μM ATP. Average and standard deviations of reactions carried out in triplicate are shown.
In vitro kinase assay to detect CK1 or FLT3 activity: CK1 and FLT3 assays as well as complete kinase profile of 296 kinases was performed by Reaction Biology Corporation. For FLT3 20 μM final Abltide was used, sequence: [[…]]. For CK1 (all isoforms) 20 μM CK1 tide was used, sequence: [KRRRAL[pS]VASLPGL] in a standard kinase assay with ^32P-ATP and purified kinase. Incorporation of ^32P-ATP into the peptide was measured after a filter-binding assay. In-house CK1d inhibition assays were performed using a standard homogenous time-resolved fluorescence resonance energy transfer (TR-FRET) format in 50 mM Hepes, pH 7.0, 2.5 mM MgCl2, 0.1 mg/ml bovine serum albumin, 1 mM DL-dithiothreitol, 0.01% Triton X-100 (all from Sigma-Aldrich). […] Assays were performed in the presence of 2 μL of compound at different (measured) concentrations, and reactions were stopped by adding 10 μL of 4 nM Eu-anti-p-Topo-IIa (PerkinElmer) in Lance Detection Buffer (Perkin Elmer). Upon excitation of the Eu-labeled antibody, energy is transferred to the acceptor dye resulting in the emission of detected light at 665 nm.

SMILES: O=[N+]([O-])c1cccc2[nH]c(CNc3nc(N4CCOCC4)nc4c3ncn4-c3ccsc3)nc12 [SR-1277]
- GI50 (A498 (renal); A498): 17 nM
- GI50 (COLO 205 (colon); COLO 205): 15 nM
- GI50 (SNB-75 (CNS); SNB-75): < 10 nM
- GI50 (MDA-MB-468 (breast); MDA-MB-468): < 10 nM
- GI50 (RXF393 (renal)): < 10 nM
- GI50 (UACC-62 (melanoma); UACC-62): 14 nM
- cell viability (HeLa cells): not affected
- inhibition of GCP proliferation (3H-thymidine) [1]: robust inhibition
- activity toward LKB1 (LKB1; result in words): inactive

SMILES: c1ccc2[nH]c(CNc3nc(N4CCOCC4)nc4c3ncn4-c3ccsc3)nc2c1 [SR-653234]
- GI50 (A498 (renal); A498 (renal), read-out: GI50): 72 nM
- GI50 (COLO 205 (colon); COLO 205 (colon), read-out: GI50): 26 nM
- GI50 (SNB-75 (CNS); SNB-75 (CNS), read-out: GI50): 25 nM
- GI50 (MDA-MB-468 (breast); MDA-MB-468 (breast), read-out: GI50): 16 nM
- GI50 (RXF393 (renal); RXF393 (renal), read-out: GI50): 26 nM
- GI50 (UACC-62 (melanoma); UACC-62 (melanoma), read-out: GI50): 68 nM
- cell viability (HeLa cells): without affecting cell viability; also recorded: not affected
- inhibition of GCP proliferation (3H-thymidine) [1]: robust inhibition
- IC50 (LKB1): 92 nM
